Assay results reported in PubChem BioAssay (NCI).
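Briefly, cells in 96-well plates were exposed to five compound concentrations for 48 h, and endpoints were estimated by linear interpolation. At the GI50, growth is halved. TGI denotes the concentration required for complete inhibition of growth.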

Columns and labels:
Experiment in all cases: NCI tumour cell line growth inhibition, 48 h
OVCAR-5 ovarian = test system: OVCAR-5 ovarian
SK-OV-3 ovarian = test system: SK-OV-3 ovarian
HCT-15 colon = test system: HCT-15 colon
SK-MEL-5 melanoma = test system: SK-MEL-5 melanoma
HT29 colon = test system: HT29 colon
HS 578T breast = test system: HS 578T breast
UACC-257 melanoma = test system: UACC-257 melanoma
EKVX NSCLC = test system: EKVX NSCLC
T-47D breast = test system: T-47D breast
BT-549 breast = test system: BT-549 breast
UACC-62 melanoma = test system: UACC-62 melanoma
UO-31 renal = test system: UO-31 renal
MDA-MB-435 = test system: MDA-MB-435
SW-620 colon = test system: SW-620 colon
HOP-92 NSCLC = test system: HOP-92 NSCLC
TK-10 renal = test system: TK-10 renal
SF-268 CNS = test system: SF-268 CNS
RPMI-8226 leukemia = test system: RPMI-8226 leukemia
KM12 colon = test system: KM12 colon
OVCAR-4 ovarian = test system: OVCAR-4 ovarian
OVCAR-3 ovarian = test system: OVCAR-3 ovarian
SNB-75 CNS = test system: SNB-75 CNS
NCI-H226 lung = test system: NCI-H226 lung
NCI/ADR-RES ovarian = test system: NCI/ADR-RES ovarian
NCI-H23 lung = test system: NCI-H23 lung
PC-3 prostate = test system: PC-3 prostate
SN12C renal = test system: SN12C renal
SK-MEL-28 melanoma = test system: SK-MEL-28 melanoma
RXF 393 renal = test system: RXF 393 renal
NCI-H522 lung = test system: NCI-H522 lung
A498 renal = test system: A498 renal
HCT-116 colon = test system: HCT-116 colon
786-0 renal = test system: 786-0 renal
SF-295 CNS = test system: SF-295 CNS
SK-MEL-2 melanoma = test system: SK-MEL-2 melanoma
CAKI-1 renal = test system: CAKI-1 renal
A549 NSCLC = test system: A549 NSCLC
HCC-2998 colon = test system: HCC-2998 colon
MCF7 breast = test system: MCF7 breast
DU-145 prostate = test system: DU-145 prostate
U251 CNS = test system: U251 CNS
MDA-MB-231 breast = test system: MDA-MB-231 breast
M14 melanoma = test system: M14 melanoma
NCI-H460 lung = test system: NCI-H460 lung
ACHN renal = test system: ACHN renal

For CN1CCN(CCCOc2ccc3nc(Nc4cc(Cl)cc(Cl)c4)ccc3c2)CC1, which GI50 (OVCAR-5 ovarian) is on record?
The GI50 was 1.71 µM.

And the TGI (OVCAR-5 ovarian)?
Its TGI is 3.35 µM.

And the GI50 (SK-OV-3 ovarian)?
The GI50 was 2 µM.

What about the TGI (SK-OV-3 ovarian) of the same molecule?
Its TGI is 3.69 µM.

What about the GI50 (HCT-15 colon) of the same molecule?
The GI50 was 0.677 µM.

What about the TGI (HCT-15 colon) of the same molecule?
The TGI was 2.11 µM.

What about the GI50 (SK-MEL-5 melanoma) of the same molecule?
The GI50 was 1.76 µM.

And the TGI (SK-MEL-5 melanoma)?
The TGI was 3.31 µM.

What about the GI50 (HT29 colon) of the same molecule?
The GI50 was 0.548 µM.

And the TGI (HT29 colon)?
Its TGI is 1.84 µM.

What about the GI50 (HS 578T breast) of the same molecule?
Its GI50 is 1.87 µM.

And the TGI (HS 578T breast)?
The TGI was 5.24 µM.

And the GI50 (UACC-257 melanoma)?
The GI50 was 2.13 µM.

What about the TGI (UACC-257 melanoma) of the same molecule?
Its TGI is 3.85 µM.

What about the GI50 (EKVX NSCLC) of the same molecule?
The GI50 was 1.63 µM.

What about the TGI (EKVX NSCLC) of the same molecule?
Its TGI is 3.38 µM.

And the GI50 (T-47D breast)?
The GI50 was 1.99 µM.

What about the TGI (T-47D breast) of the same molecule?
Its TGI is 4.39 µM.

What about the GI50 (BT-549 breast) of the same molecule?
Its GI50 is 1.9 µM.

What about the TGI (BT-549 breast) of the same molecule?
The TGI was 3.58 µM.

What about the GI50 (UACC-62 melanoma) of the same molecule?
The GI50 was 1.81 µM.

And the TGI (UACC-62 melanoma)?
The TGI was 3.76 µM.

What about the GI50 (UO-31 renal) of the same molecule?
Its GI50 is 1.58 µM.

And the TGI (UO-31 renal)?
Its TGI is 3.24 µM.

And the GI50 (MDA-MB-435)?
The GI50 was 1.5 µM.

And the TGI (MDA-MB-435)?
Its TGI is 2.94 µM.

What about the GI50 (SW-620 colon) of the same molecule?
The GI50 was 1.68 µM.

And the TGI (SW-620 colon)?
Its TGI is 3.46 µM.

And the GI50 (HOP-92 NSCLC)?
Its GI50 is 1.46 µM.

And the TGI (HOP-92 NSCLC)?
The TGI was 3.2 µM.

What about the GI50 (TK-10 renal) of the same molecule?
The GI50 was 2.33 µM.

And the TGI (TK-10 renal)?
The TGI was 3.92 µM.

What about the GI50 (SF-268 CNS) of the same molecule?
Its GI50 is 1.48 µM.

And the TGI (SF-268 CNS)?
Its TGI is 3.02 µM.

What about the GI50 (RPMI-8226 leukemia) of the same molecule?
Its GI50 is 2.16 µM.

What about the TGI (RPMI-8226 leukemia) of the same molecule?
The TGI was 4.78 µM.

And the GI50 (KM12 colon)?
The GI50 was 1.53 µM.

What about the TGI (KM12 colon) of the same molecule?
The TGI was 2.99 µM.

And the GI50 (OVCAR-4 ovarian)?
Its GI50 is 1.79 µM.

What about the TGI (OVCAR-4 ovarian) of the same molecule?
The TGI was 5.65 µM.

What about the GI50 (OVCAR-3 ovarian) of the same molecule?
Its GI50 is 1.56 µM.

What about the TGI (OVCAR-3 ovarian) of the same molecule?
The TGI was 3.22 µM.

What about the GI50 (SNB-75 CNS) of the same molecule?
The GI50 was 1.11 µM.

And the TGI (SNB-75 CNS)?
The TGI was 2.56 µM.

And the GI50 (NCI-H226 lung)?
The GI50 was 2.14 µM.

And the TGI (NCI-H226 lung)?
Its TGI is 5.68 µM.

What about the GI50 (NCI/ADR-RES ovarian) of the same molecule?
The GI50 was 1.99 µM.

What about the TGI (NCI/ADR-RES ovarian) of the same molecule?
The TGI was 5.78 µM.

And the GI50 (NCI-H23 lung)?
The GI50 was 1.63 µM.

What about the TGI (NCI-H23 lung) of the same molecule?
Its TGI is 3.54 µM.

What about the GI50 (PC-3 prostate) of the same molecule?
Its GI50 is 1.93 µM.

And the TGI (PC-3 prostate)?
The TGI was 3.71 µM.

What about the GI50 (SN12C renal) of the same molecule?
The GI50 was 1.81 µM.

And the TGI (SN12C renal)?
Its TGI is 3.77 µM.

What about the GI50 (SK-MEL-28 melanoma) of the same molecule?
The GI50 was 1.63 µM.

And the TGI (SK-MEL-28 melanoma)?
Its TGI is 3.21 µM.

What about the GI50 (RXF 393 renal) of the same molecule?
Its GI50 is 1.33 µM.

What about the TGI (RXF 393 renal) of the same molecule?
Its TGI is 2.93 µM.

And the GI50 (NCI-H522 lung)?
The GI50 was 2.06 µM.

And the TGI (NCI-H522 lung)?
Its TGI is 3.74 µM.

And the GI50 (A498 renal)?
The GI50 was 1.8 µM.

What about the TGI (A498 renal) of the same molecule?
The TGI was 3.22 µM.

What about the GI50 (HCT-116 colon) of the same molecule?
The GI50 was 1.58 µM.

What about the TGI (HCT-116 colon) of the same molecule?
Its TGI is 2.98 µM.

And the GI50 (786-0 renal)?
The GI50 was 1.58 µM.

And the TGI (786-0 renal)?
The TGI was 3.08 µM.

What about the GI50 (SF-295 CNS) of the same molecule?
The GI50 was 1.41 µM.

And the TGI (SF-295 CNS)?
The TGI was 2.89 µM.

And the GI50 (SK-MEL-2 melanoma)?
The GI50 was 2.03 µM.

What about the TGI (SK-MEL-2 melanoma) of the same molecule?
Its TGI is 4.04 µM.

What about the GI50 (CAKI-1 renal) of the same molecule?
The GI50 was 1.82 µM.

What about the TGI (CAKI-1 renal) of the same molecule?
Its TGI is 3.72 µM.

And the GI50 (A549 NSCLC)?
The GI50 was 2.11 µM.

What about the TGI (A549 NSCLC) of the same molecule?
Its TGI is 3.8 µM.

What about the GI50 (HCC-2998 colon) of the same molecule?
The GI50 was 1.54 µM.

And the TGI (HCC-2998 colon)?
Its TGI is 3.06 µM.

What about the GI50 (MCF7 breast) of the same molecule?
The GI50 was 1.48 µM.

What about the TGI (MCF7 breast) of the same molecule?
Its TGI is 3.05 µM.

And the GI50 (DU-145 prostate)?
Its GI50 is 1.57 µM.

What about the TGI (DU-145 prostate) of the same molecule?
The TGI was 3.07 µM.

And the GI50 (U251 CNS)?
The GI50 was 1.61 µM.

And the TGI (U251 CNS)?
Its TGI is 3.13 µM.

What about the GI50 (MDA-MB-231 breast) of the same molecule?
The GI50 was 1.56 µM.

What about the TGI (MDA-MB-231 breast) of the same molecule?
The TGI was 3.31 µM.

What about the GI50 (M14 melanoma) of the same molecule?
The GI50 was 1.5 µM.

And the TGI (M14 melanoma)?
The TGI was 3.08 µM.

What about the GI50 (NCI-H460 lung) of the same molecule?
The GI50 was 1.54 µM.

And the TGI (NCI-H460 lung)?
Its TGI is 3.18 µM.

And the GI50 (ACHN renal)?
Its GI50 is 1.51 µM.

And the TGI (ACHN renal)?
The TGI was 2.9 µM.
